Key:
K562 = test: cells; format: functional; details: Homo sapiens, time 48 hrs
Description: Growth inhibition of human K562 cells incubated for 48 hrs by sulforhodamine B assay

HOP-62 = test: cells; format: functional; details: Homo sapiens, time 48 hrs
Description: Growth inhibition of human HOP-62 cells incubated for 48 hrs by sulforhodamine B assay

HOP-92 = test: cells; format: functional; details: Homo sapiens, time 48 hrs
Description: Growth inhibition of human HOP-92 cells incubated for 48 hrs by sulforhodamine B assay

NCI-H226 = test: cells; format: functional; details: Homo sapiens, time 48 hrs
Description: Growth inhibition of human NCI-H226 cells incubated for 48 hrs by sulforhodamine B assay

NCI-H522 = test: cells; format: functional; details: Homo sapiens, time 48 hrs
Description: Growth inhibition of human NCI-H522 cells incubated for 48 hrs by sulforhodamine B assay

KM12 = test: cells; format: functional; details: Homo sapiens, time 48 hrs
Description: Growth inhibition of human KM12 cells incubated for 48 hrs by sulforhodamine B assay

SF-295 = test: cells; format: functional; details: Homo sapiens, time 48 hrs
Description: Growth inhibition of human SF-295 cells incubated for 48 hrs by sulforhodamine B assay

SNB-75 = test: cells; format: functional; details: Homo sapiens, time 48 hrs
Description: Growth inhibition of human SNB-75 cells incubated for 48 hrs by sulforhodamine B assay

LOX IMVI [1] = test: cells; format: functional; details: Homo sapiens, time 48 hrs
Description: Growth inhibition of human LOX IMVI cells incubated for 48 hrs by sulforhodamine B assay

UACC-62 = test: cells; format: functional; details: Homo sapiens, time 48 hrs
Description: Growth inhibition of human UACC-62 cells incubated for 48 hrs by sulforhodamine B assay

OVCAR-3 = test: cells; format: functional; details: Homo sapiens, time 48 hrs
Description: Growth inhibition of human OVCAR-3 cells incubated for 48 hrs by sulforhodamine B assay

UO-31 = test: cells; format: functional; details: Homo sapiens, time 48 hrs
Description: Growth inhibition of human UO-31 cells incubated for 48 hrs by sulforhodamine B assay

PC-3 = test: cells; format: functional; details: Homo sapiens, time 48 hrs
Description: Growth inhibition of human PC-3 cells incubated for 48 hrs by sulforhodamine B assay

MDA-MB-231 = test: cells; format: functional; details: Homo sapiens, time 48 hrs
Description: Growth inhibition of human MDA-MB-231/ATCC cells incubated for 48 hrs by sulforhodamine B assay

Hs-578T = test: cells; format: functional; details: Homo sapiens, time 48 hrs
Description: Growth inhibition of human Hs-578T cells incubated for 48 hrs by sulforhodamine B assay

[2] = Cytotoxicity against human HFF-1 cells assessed as cell growth inhibition at 1 uM by MTT assay relative to control; format: cell-based; details: read-out: GI
[3] = Cytotoxicity against human HFF-1 cells assessed as cell growth inhibition at 0.1 uM by MTT assay relative to control; format: cell-based; details: read-out: GI
[4] = target: ALK tyrosine kinase receptor (Homo sapiens) (UniProt Q9UM73); test: Inhibition of N-terminal His6-tagged human recombinant ALK (1058 to end residues) expressed in baculovirus infected Sf21 cells assessed as residual activity at 10 uM relative to control
[5] = target: Aurora kinase A (Homo sapiens) (UniProt O14965); test: Inhibition of human recombinant Aurora A assessed as residual activity at 10 uM relative to control
[6] = target: CDK3/Cyclin E (Homo sapiens) (UniProt P24864+Q00526); test: Inhibition of full length C-terminal His6-tagged human CDK3/full length N-terminal GST-tagged human Cyclin E expressed in baculovirus infected Sf21 insect cells assessed as residual activity at 10 uM relative to control
[7] = target: RAF proto-oncogene serine/threonine-protein kinase (Homo sapiens) (UniProt P04049); test: Inhibition of recombinant N-terminal GST-tagged human CRAF (306 to 648 residues) expressed in Sf9 cells assessed as residual activity at 10 uM relative to control
[8] = target: Epidermal growth factor receptor (Homo sapiens) (UniProt P00533); test: Inhibition of N-terminal GST-tagged human EGFR (696 to end residues) expressed in baculovirus-infected Sf21 cells assessed as residual activity at 10 uM relative to control
[9] = target: Fibroblast growth factor receptor 2 (Homo sapiens) (UniProt P21802); test: Inhibition of N-terminal His6-tagged human FGFR2 (456 to 770 residues) expressed in baculovirus-infected Sf21 cells assessed as residual activity at 10 uM relative to control
[10] = target: Receptor-type tyrosine-protein kinase FLT3 (Homo sapiens) (UniProt P36888); test: Inhibition of human FLT3 assessed as residual activity at 10 uM relative to control
[11] = target: Insulin-like growth factor 1 receptor (Homo sapiens) (UniProt P08069); test: Inhibition of human IGF1R assessed as residual activity at 10 uM relative to control
[12] = target: Mitogen-activated protein kinase 1 (Homo sapiens) (UniProt P28482); test: Inhibition of recombinant full length N-terminal GST-tagged human MAPK1 expressed in Escherichia coli at 10 uM relative to control
[13] = target: Hepatocyte growth factor receptor (Homo sapiens) (UniProt P08581); test: Inhibition of recombinant N-terminal His6-tagged human MET (974 to end residues) expressed in baculovirus infected Sf21 insect cells at 10 uM relative to control
[14] = target: Serine/threonine-protein kinase mTOR (Homo sapiens) (UniProt P42345); test: Inhibition of human mTOR at 10 uM relative to control
[15] = target: Platelet-derived growth factor receptor alpha (Homo sapiens) (UniProt P16234); test: Inhibition of recombinant N-terminal His6-tagged human PDGFRalpha (550 to end residues) expressed in baculovirus infected Sf21 insect cells at 10 uM relative to control
[16] = target: Platelet-derived growth factor receptor beta (Homo sapiens) (UniProt P09619); test: Inhibition of recombinant N-terminal His6-tagged human PDGFRbeta (557 to end residues) expressed in baculovirus infected Sf21 insect cells at 10 uM relative to control
[17] = target: Rho-associated protein kinase 1 (Homo sapiens) (UniProt Q13464); test: Inhibition of auto-activated recombinant N-terminal His6-tagged human ROCK1 (17 to 535 residues) expressed in baculovirus infected Sf21 insect cells at 10 uM incubated in presence of Mg/ATP relative to control
[18] = target: Proto-oncogene tyrosine-protein kinase ROS (Homo sapiens) (UniProt P08922); test: Inhibition of recombinant N-terminal His6-tagged human ROS (1883 to end residues) expressed in baculovirus infected Sf21 insect cells at 10 uM relative to control
[19] = target: Tyrosine-protein kinase SYK (Homo sapiens) (UniProt P43405); test: Inhibition of recombinant full length N-terminal His6-tagged human SYK expressed in baculovirus infected Sf21 insect cells at 10 uM relative to control
[20] = target: Angiopoietin-1 receptor (Homo sapiens) (UniProt Q02763); test: Inhibition of recombinant N-terminal His6-tagged human Tie2 (771 to end residues) expressed in baculovirus infected Sf21 insect cells at 10 uM relative to control
[21] = target: High affinity nerve growth factor receptor (Homo sapiens, UniProt P04629); test: Inhibition of recombinant N-terminal His6-tagged human TrkA (440 to end residues) expressed in baculovirus infected Sf21 insect cells at 10 uM relative to control
[22] = test system: PI3-kinase p110-alpha/p85-alpha (Homo sapiens), P27986+P42336 [E545K]; test: Inhibition of p110alpha/p85alpha E545K mutant (unknown origin) at 10 uM relative to control; format: protein-complex assay
LOX IMVI [23] = test: Growth inhibition of human LOX IMVI cells assessed as growth percentage at 10 uM measured after 48 hrs by sulforhodamine B assay relative to control; format: functional; details: read-out: Activity
[24] = test system: Panel prostate (Carcinoma cell lines); test: cells; format: functional; details: Homo sapiens, time 48 hrs
Description: Growth inhibition of human Panel prostate (Carcinoma cell lines) incubated for 48 hrs by sulforhodamine B assay

[25] = test system: Panel breast (Carcinoma cell lines); test: cells; format: functional; details: Homo sapiens, time 48 hrs
Description: Growth inhibition of human Panel breast (Carcinoma cell lines) incubated for 48 hrs by sulforhodamine B assay

Sequence of Rho-associated protein kinase 1 (Homo sapiens) (Q13464 2-1354 limits assumed): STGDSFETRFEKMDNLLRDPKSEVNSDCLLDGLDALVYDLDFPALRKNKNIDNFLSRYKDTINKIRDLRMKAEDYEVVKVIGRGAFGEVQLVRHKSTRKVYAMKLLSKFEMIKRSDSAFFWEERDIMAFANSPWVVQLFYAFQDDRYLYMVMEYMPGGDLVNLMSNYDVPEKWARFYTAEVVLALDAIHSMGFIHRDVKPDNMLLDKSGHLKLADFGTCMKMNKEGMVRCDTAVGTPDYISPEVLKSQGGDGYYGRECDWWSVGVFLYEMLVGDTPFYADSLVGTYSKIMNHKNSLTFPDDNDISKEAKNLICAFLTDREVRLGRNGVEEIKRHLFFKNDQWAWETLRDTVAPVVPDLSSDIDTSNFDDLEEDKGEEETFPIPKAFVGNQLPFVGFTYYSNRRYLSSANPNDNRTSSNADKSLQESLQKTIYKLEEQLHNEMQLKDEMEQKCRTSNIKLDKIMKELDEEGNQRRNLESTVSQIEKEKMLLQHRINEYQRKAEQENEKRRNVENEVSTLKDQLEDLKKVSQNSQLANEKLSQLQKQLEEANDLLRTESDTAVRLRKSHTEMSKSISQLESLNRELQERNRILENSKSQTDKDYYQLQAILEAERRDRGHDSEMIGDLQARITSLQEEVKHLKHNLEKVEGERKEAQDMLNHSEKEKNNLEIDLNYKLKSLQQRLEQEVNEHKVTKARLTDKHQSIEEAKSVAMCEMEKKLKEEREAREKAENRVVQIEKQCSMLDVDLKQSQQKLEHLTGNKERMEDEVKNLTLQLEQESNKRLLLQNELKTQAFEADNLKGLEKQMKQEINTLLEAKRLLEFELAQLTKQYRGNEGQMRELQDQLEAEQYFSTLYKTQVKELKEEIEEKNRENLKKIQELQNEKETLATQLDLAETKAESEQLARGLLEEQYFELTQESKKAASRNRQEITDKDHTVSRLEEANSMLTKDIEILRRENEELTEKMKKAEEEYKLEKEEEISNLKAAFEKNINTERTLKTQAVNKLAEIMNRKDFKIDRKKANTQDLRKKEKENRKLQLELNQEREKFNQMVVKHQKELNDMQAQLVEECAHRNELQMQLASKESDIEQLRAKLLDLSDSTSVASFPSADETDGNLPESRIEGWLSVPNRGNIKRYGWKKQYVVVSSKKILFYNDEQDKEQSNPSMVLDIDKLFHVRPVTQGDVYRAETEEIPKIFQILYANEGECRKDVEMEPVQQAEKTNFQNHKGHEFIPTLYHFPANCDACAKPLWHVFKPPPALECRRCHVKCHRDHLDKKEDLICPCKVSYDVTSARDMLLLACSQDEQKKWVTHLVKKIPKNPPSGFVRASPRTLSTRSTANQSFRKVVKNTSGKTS
Sequence of Mitogen-activated protein kinase 1 (Homo sapiens) (P28482 whole entry): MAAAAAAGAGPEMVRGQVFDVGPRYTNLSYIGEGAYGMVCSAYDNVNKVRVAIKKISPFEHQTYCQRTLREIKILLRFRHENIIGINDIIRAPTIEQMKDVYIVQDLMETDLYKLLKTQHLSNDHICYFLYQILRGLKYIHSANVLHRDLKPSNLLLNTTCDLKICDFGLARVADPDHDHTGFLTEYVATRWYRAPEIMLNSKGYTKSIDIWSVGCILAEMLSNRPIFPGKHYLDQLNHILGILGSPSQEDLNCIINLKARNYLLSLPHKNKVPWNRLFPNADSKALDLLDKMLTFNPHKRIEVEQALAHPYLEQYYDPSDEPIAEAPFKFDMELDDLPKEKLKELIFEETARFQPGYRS
Sequence of Angiopoietin-1 receptor (Homo sapiens) (Q02763 whole entry): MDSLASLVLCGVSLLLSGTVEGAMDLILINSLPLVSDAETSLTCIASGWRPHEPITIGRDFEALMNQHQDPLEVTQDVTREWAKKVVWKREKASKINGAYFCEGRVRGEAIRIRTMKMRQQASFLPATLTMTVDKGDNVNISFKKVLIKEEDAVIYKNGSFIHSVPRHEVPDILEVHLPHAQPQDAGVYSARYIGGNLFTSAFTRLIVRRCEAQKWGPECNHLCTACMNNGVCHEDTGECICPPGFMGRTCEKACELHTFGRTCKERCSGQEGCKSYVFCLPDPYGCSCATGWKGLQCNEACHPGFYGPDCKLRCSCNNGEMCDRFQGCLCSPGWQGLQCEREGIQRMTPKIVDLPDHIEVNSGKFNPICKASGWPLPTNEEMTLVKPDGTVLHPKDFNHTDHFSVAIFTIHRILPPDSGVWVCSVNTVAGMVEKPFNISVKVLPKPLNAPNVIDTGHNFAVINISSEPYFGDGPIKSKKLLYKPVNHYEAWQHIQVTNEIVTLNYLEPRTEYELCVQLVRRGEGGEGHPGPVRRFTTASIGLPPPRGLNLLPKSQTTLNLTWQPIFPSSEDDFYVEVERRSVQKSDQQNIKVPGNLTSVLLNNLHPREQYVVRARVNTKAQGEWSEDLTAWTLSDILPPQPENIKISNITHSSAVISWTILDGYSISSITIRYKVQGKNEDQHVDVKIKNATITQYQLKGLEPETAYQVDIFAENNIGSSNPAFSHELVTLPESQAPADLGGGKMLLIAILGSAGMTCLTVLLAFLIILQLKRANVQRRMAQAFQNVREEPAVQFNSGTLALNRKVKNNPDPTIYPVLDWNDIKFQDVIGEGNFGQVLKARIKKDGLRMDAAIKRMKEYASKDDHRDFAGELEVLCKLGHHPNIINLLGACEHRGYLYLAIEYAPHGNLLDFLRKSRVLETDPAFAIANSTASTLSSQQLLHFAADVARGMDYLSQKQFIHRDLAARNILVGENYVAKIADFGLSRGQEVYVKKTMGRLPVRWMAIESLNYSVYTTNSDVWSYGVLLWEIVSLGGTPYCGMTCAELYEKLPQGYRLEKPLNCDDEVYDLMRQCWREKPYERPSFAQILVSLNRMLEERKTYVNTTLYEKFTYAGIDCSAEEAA
Sequence of ALK tyrosine kinase receptor (Homo sapiens) (Q9UM73 19-1620 limits assumed): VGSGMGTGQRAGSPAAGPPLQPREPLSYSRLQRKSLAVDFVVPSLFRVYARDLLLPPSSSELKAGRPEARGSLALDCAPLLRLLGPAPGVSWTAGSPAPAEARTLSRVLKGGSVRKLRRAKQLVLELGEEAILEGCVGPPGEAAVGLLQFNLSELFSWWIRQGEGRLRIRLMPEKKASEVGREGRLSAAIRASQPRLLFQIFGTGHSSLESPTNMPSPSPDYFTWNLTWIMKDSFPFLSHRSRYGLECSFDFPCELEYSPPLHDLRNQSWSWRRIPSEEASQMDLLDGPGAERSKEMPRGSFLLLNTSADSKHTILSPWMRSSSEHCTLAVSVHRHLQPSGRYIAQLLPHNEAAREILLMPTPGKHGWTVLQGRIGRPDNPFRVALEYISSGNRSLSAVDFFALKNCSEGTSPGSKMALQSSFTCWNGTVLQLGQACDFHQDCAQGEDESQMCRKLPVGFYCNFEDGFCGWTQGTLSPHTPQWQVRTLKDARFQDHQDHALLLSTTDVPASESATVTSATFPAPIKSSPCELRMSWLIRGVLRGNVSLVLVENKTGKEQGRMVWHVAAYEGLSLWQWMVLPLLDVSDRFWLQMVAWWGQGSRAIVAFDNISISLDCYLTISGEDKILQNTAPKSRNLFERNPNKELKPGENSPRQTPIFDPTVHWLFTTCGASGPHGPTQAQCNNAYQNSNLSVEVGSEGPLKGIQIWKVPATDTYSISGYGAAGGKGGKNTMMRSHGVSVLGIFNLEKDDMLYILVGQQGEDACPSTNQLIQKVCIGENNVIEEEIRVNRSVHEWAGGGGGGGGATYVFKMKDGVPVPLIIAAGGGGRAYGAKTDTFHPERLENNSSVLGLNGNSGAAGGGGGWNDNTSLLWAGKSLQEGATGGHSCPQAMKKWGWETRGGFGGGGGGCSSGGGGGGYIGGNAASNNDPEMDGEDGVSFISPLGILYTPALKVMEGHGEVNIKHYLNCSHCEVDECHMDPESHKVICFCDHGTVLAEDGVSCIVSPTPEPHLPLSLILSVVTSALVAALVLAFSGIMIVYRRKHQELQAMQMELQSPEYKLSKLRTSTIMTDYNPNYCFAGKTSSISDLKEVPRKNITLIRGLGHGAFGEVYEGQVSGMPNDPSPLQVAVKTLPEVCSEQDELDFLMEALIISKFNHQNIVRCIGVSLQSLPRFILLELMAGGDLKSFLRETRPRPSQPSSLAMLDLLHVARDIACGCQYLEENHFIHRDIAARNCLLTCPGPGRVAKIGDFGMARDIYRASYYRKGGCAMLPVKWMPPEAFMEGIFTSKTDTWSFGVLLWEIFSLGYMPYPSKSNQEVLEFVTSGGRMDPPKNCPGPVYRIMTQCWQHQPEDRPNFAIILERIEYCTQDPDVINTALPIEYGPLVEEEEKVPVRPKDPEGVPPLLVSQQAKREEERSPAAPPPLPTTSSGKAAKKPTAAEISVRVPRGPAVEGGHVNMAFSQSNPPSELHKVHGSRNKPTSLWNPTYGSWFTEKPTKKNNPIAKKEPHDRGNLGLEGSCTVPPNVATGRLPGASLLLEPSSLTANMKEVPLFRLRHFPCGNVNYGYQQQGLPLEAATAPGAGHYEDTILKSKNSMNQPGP
Sequence of Aurora kinase A (Homo sapiens) (O14965 whole entry): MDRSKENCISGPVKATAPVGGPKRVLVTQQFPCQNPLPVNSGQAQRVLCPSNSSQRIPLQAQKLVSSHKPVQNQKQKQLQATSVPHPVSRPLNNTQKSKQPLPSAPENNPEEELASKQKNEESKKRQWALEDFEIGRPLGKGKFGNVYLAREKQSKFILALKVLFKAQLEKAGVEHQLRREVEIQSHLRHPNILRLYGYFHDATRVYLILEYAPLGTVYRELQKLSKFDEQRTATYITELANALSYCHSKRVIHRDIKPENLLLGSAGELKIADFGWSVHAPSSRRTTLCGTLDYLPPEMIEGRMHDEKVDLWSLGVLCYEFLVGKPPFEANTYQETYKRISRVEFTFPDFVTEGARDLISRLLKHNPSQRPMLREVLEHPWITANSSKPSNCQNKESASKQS

CN1CCN(CCCOc2cccc3nc(Nc4ccc(Cl)c(C(F)(F)F)c4)ccc23)CC1
GI50 (K562): 1620 nM
GI50 (HOP-62): 1700 nM
GI50 (HOP-92): 1020 nM
GI50 (NCI-H226): 2070 nM
GI50 (NCI-H522): 1830 nM
GI50 (KM12): 1740 nM
GI50 (SF-295): 1800 nM
GI50 (SNB-75): 1520 nM
GI50 (LOX IMVI [1]): 1560 nM
GI50 (UACC-62): 1720 nM
GI50 (OVCAR-3): 1810 nM
GI50 (UO-31): 1460 nM
GI50 (PC-3): 1570 nM
GI50 (MDA-MB-231): 1470 nM
GI50 (Hs-578T): 2000 nM
inhibition at 1 µM [2]: 12.7%
inhibition at 0.1 µM [3]: 6.07%
Activity [4]: < 60%
Activity [5]: < 60%
Activity [6]: < 60%
Activity [7]: < 60%
Activity [8]: < 60%
Activity [9]: < 60%
Activity [10]: 66%
Activity [11]: < 60%
inhibition [12]: < 60%
inhibition [13]: < 60%
inhibition [14]: < 60%
inhibition [15]: < 60%
inhibition [16]: < 60%
inhibition [17]: < 60%
inhibition [18]: < 60%
inhibition [19]: < 60%
inhibition [20]: < 60%
inhibition [21]: 96%
inhibition [22]: < 60%
growth at 10 µM (LOX IMVI [23]): -5.77%
GI50 [24]: 1690 nM
LC50 (concentration killing 50% of cells) [24]: 5880 nM
TGI [24]: 3150 nM
GI50 [25]: 1690 nM
TGI [25]: 3630 nM
CC50 ([25]; read-out: LC50 (the source's name)): 11200 nM
